Assay results from patent US20230002327A1, “SMALL-MOLECULE REGULATOR OF TLR8” (TSINGHUA UNIVERSITY, priority 2019, published 2023).

Columns and labels:
[1] = biological target: T1, TLR8 (Homo sapiens, UniProt Q9NR97); assay: Inhibition of R848-induced signaling in HEK-Blue hTLR8 cell line (Quanti-Blue); type: cell-based; conditions: HEK-Blue hTLR8 cell line; normalized, ligand+DMSO = 100% activity, untreated = 0%
T1 construct: host or cells: HEK-Blue hTLR8 (HEK293-derived SEAP reporter cells)
T1 sequence (Q9NR97 27-1041): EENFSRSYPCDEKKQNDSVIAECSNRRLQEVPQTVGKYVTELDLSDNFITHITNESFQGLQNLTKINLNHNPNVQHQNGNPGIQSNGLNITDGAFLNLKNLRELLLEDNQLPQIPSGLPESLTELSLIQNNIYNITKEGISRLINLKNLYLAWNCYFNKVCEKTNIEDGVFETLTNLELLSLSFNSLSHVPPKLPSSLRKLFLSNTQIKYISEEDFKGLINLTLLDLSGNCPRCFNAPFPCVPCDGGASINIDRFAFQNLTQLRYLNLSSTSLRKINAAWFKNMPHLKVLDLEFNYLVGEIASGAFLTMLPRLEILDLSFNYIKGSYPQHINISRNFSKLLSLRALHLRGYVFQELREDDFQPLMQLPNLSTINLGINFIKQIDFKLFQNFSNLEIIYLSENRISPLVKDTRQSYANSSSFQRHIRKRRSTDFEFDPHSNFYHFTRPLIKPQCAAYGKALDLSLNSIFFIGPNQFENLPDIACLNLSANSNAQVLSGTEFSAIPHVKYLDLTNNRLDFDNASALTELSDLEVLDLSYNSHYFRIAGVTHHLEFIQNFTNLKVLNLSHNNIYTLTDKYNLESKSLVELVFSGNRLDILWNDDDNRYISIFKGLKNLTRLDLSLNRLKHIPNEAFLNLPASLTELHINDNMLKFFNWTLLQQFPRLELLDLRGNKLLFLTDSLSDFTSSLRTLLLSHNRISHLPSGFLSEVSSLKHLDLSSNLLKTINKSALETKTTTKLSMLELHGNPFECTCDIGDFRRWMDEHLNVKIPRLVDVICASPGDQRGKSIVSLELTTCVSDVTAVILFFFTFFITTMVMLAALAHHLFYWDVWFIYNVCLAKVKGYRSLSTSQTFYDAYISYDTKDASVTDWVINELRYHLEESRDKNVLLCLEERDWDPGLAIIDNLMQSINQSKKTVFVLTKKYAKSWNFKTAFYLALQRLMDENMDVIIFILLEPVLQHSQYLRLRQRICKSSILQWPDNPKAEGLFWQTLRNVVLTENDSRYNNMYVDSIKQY
Description: (§1) HEK Blue hTLR8 cells or HEK Blue hTLR7 cells were cultured in DMEM medium supplemented with 10% fetal bovine serum, penicillin (100 U/mL) and streptomycin ([…]). Thereafter, cells were seeded in 96-well plate (45,000 cells per well), and were cultured for 24 hours in a humidified incubator (37° C., 5% CO2).
After 24 hours, the supernatant and suspending cells were aspirated and replaced with fresh serum-free DMEM.
(§2) After 24 hours, 50 μL of the medium was aspirated from each well and then added to a new 96-well plate, followed by the addition of 50 μL of Quanti-Blue in each well and the incubation at 37° C. in darkness. Changes in color would occur in the […] within 60 minutes, and the absorbance was measured at 620 nm by using the multi-mode plate reader Vrioskan Flash. Inhibition rate (%)=[R848 (OD620)−Compound (OD620)]/[R848 (OD620)−Control (OD620)]×100%. Among these, the control group was only added with the same amount of cells. Finally, the software Prism 6.0 was utilized to plot a graph and calculate IC50 values. Or, the activity of the cells treated with ligand and DMSO was defined as 100% activity, and the activity of the untreated cells was defined as 0% activity.

[2] = biological target: T2, TLR7 (Homo sapiens, UniProt Q9NYK1); assay: Inhibition of R848-induced signaling in HEK-Blue hTLR7 cell line (Quanti-Blue); type: cell-based
T2 construct: host or cells: HEK-Blue hTLR7 (HEK293-derived SEAP reporter cells)
T2 sequence (Q9NYK1 27-1049): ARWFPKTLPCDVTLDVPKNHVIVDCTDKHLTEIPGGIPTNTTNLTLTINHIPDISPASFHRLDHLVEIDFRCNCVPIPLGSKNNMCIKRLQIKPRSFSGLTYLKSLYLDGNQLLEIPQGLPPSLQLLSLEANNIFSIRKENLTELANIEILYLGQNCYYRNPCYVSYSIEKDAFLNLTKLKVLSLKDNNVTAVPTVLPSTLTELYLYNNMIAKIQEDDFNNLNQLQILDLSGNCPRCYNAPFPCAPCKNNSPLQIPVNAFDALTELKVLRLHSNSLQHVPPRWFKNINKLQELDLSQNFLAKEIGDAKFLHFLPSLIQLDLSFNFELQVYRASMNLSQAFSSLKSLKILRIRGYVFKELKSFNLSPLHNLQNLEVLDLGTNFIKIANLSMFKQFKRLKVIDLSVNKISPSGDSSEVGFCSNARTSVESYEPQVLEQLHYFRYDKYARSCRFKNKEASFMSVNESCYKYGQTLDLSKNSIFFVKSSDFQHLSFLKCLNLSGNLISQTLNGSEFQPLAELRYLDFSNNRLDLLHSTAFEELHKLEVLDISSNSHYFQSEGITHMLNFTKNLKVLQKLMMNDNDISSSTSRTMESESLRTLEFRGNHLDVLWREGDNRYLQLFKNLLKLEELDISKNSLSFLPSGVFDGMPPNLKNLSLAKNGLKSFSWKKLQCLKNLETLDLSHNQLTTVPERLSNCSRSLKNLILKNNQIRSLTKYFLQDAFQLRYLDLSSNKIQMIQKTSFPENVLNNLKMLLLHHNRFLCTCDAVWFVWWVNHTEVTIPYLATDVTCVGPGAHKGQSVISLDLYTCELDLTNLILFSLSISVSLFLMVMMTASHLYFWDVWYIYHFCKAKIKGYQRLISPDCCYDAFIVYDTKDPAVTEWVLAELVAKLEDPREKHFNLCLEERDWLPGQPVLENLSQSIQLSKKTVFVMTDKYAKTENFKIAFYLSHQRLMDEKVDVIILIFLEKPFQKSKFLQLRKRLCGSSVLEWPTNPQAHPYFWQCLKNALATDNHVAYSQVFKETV
Description: as §1
After 24 hours, the supernatant and suspending cells were aspirated and replaced with fresh serum-free DMEM. Cells were treated with 1 μg/mL of R848 (agonist of TLR7/8) or 5 μg/mL of ssRNA40/LyoVec or 5 μg/mL of ORN06/LyoVec (InvivoGen) and compounds with specified concentrations, and were placed in a humidified incubator (37° C., 5% CO2) for co-culture.
as §2

[3] = tested on: HEK-Blue hTLR8 cell line; assay: Toxicity test of compounds (CCK-8 cell viability); type: cell-based, human; parameters: key to WST1 (normalized toxicity effect): viability relative to control well (background-subtracted OD), 1 = control; conditions: normalized cell viability, HEK-Blue cell lines
Description: In the 96-well plate used for the above-mentioned activity test of compounds (remaining 50 μL of culture medium containing cells), 5 μL of CellCountingKit-8 (CCK-8) Supermix was added to each well. Note that the introduction of air bubbles into the wells should be avoided since the air bubbles would interfere with the detection of OD value.
The culture plate was incubated in an incubator for 1 to 4 hours,
The edge of the 96-well plate could be tapped gently before reading the plate, and then the absorbance at 450 nm was measured by using the multi-mode plate reader.
Cell viability (%) was determined using the following formula: cell viability (%)=([Compound well ([…])−Background well (OD450)]/[Control well ([…])−Background well (OD450)])×100%. Among these, the background well was only added with the medium and CCK-8 reagent, the control well was only added with the medium, cells, R848 and CCK-8, and the compound wells were added with the medium, cells, R848, compounds in different concentrations, and CCK-8.

Remaining R848-induced TLR8 signaling (normalized activity; ligand+DMSO = 1, untreated = 0) [1] | TLR7 (normalized inhibitory effect on R848-induced signaling) [2] | Structure (SMILES) | WST1 (normalized toxicity effect) [3]
0.01 ± 0.01 | 0.9 ± 0.1 | CCOCc1nc(I)c(-c2cccc(-c3ccccc3)c2)n1CC(C)(C)O [Compound 61, 1-(5-([1,1′-biphenyl]-3-yl)-2-(ethoxymethyl)-4-iodo-1H-imidazole-1-yl)-2-methylpropan-2-ol] | 0.9 ± 0.2
0.06 ± 0.1 | 0.9 ± 0.1 | CCOCc1nc(I)c(-c2cccc3ccccc23)n1CC(C)(C)O [Compound 62, 1-(2-(ethoxymethyl)-4-iodo-5-(naphthalen-1-yl)-1H-imidazole-1-yl)-2-methylpropan-2-ol] | 0.8 ± 0.1
0.9 ± 0.1 | 0.9 ± 0.2 | CCOCc1nc(I)c(-c2ccc3ccccc3c2)n1CC(C)(C)O [Compound 63, 1-(2-(ethoxymethyl)-4-iodo-5-(naphthalen-2-yl)-1H-imidazole-1-yl)-2-methylpropan-2-ol] | 1.0 ± 0.1
0.9 ± 0.1 | 0.9 ± 0.2 | CCOCc1nc(I)c(-c2ccc(C)cc2)n1CC(C)(C)O [Compound 64, 1-(2-(ethoxymethyl)-4-iodo-5-(p-tolyl)-1H-imidazole-1-yl)-2-methylpropan-2-ol] | 1.1 ± 0.1

The next lines start with the compound.

Structure (SMILES) | Remaining R848-induced TLR8 signaling (normalized activity; ligand+DMSO = 1, untreated = 0) [1] | TLR7 (normalized inhibitory effect on R848-induced signaling) [2] | WST1 (normalized toxicity effect) [3]
CCOCc1nc(C(=O)O)c(-c2ccccc2)n1CC(C)(C)O [Compound 54, 2-(ethoxymethyl)-1-(2-hydroxy-2-methylpropyl)-5-phenyl-1H-imidazole-4-carboxylic acid] | 0.9 ± 0.2 | 0.9 ± 0.2 | 1.1 ± 0.3
CCOCc1ncc(-c2ccccc2)n1CC(C)C [Compound 55, 2-(ethoxymethyl)-1-(2-methylpropyl)-5-phenyl-1H-imidazole] | 0.8 ± 0.1 | 0.6 ± 0.2 | 0.9 ± 0.3
CCOCc1nc(Cl)c(-c2ccccc2)n1CC(C)C [Compound 56, 4-chloro-2-(ethoxymethyl)-1-(2-methylpropyl)-5-phenyl-1H-imidazole] | 0.5 ± 0.2 | 0.6 ± 0.2 | 0.7 ± 0.2
CCOCc1nc(Br)c(-c2ccccc2)n1CC(C)C [Compound 57, 4-bromo-2-(ethoxymethyl)-1-(2-methylpropyl)-5-phenyl-1H-imidazole] | 0.01 ± 0.01 | 0.1 ± 0.1 | 0.7 ± 0.1
CCOCc1nc(I)c(-c2ccccc2)n1CC(C)C [Compound 58, 2-(ethoxymethyl)-4-iodo-1-(2-methylpropyl)-5-phenyl-1H-imidazole] | 0.01 ± 0.01 | 0.1 ± 0.2 | 0.3 ± 0.2
CCOCc1nc(I)c(-c2ccc(-c3ccccc3)cc2)n1CC(C)(C)O [Compound 60, 1-(5-([1,1′-biphenyl]-4-yl)-2-(ethoxymethyl)-4-iodo-1H-imidazole-1-yl)-2-methylpropan-2-ol] | 0.3 ± 0.1 | 1.0 ± 0.1 | 0.6 ± 0.1
